Assays:
[1] = tested on: canine DH82 macrophage cell line; assay: Cytokine assay in DH82 macrophage cultures (Example 26); type: cell-based
[2] = tested on: Primary canine dermal fibroblasts; assay: Cytokine assay in primary dermal fibroblast cultures (Example 26); type: cell-based
[3] = tested on: erythropoietin, granulocyte/macrophage colony-stimulating factor, IL-12, IL-23; details: GM-CSF, read-out: IC50's, cytokines that do not activate the JAK1 enzyme in cells; cited from earlier work
[4] = tested on: murine CD4+ and CD8+ T cells; details: not IFN-γ-producing cells; cited from earlier work
T cell proliferation = details: published data; cited from earlier work
[5] = tested on: JAK1-dependent cytokines involved in allergy and inflammation (IL-2, IL-4, IL-6, and IL-13) as well as pruritus (IL-31); details: published data; cited from earlier work
JAK kinases = details: range over JAK kinases; read-out: IC50, inhibition of JAK kinases; cited from earlier work
[6] = tested on: BT (Bos taurus turbinate), MDBK (Bos taurus kidney) and MARC 145 (monkey kidney) cells; assay: Lactate dehydrogenase release assay (LDH assay), Example 18; type: cell-based; details: up to concentrations of 1 microg/mL
Procedure: Oleandrin (PhytoLab, Vestenbergsgreuth, Germany) was dissolved at a concentration of 1 mg/ml in DMSO. The desired concentration range to be used in cytotoxicity testing is 0.005-1 ug/ml in 0.0005-0.1% wt in DMSO, respectively. Lactate dehydrogenase release assay (LDH assay) was be used to determine the cytotoxic effect of different concentration of Oleandrin on different cell cultures. LDH is a cytosolic enzyme that is released only from damaged cells (due to increased membrane permeability) to the outside medium that will convert the lactate in the medium into pyruvate in a coupled reaction that includes the reduction of NAD+ into NADH, the latter is oxidized back to NAD+ in the presence of Diaphorase in the LDH kit mix that leads to the reduction of water soluble tetrazolium (INT), that is also in the kit mix, into red Formazon product that can be read by an ELISA reader at a wave length of 490 nm. […]
This was achieved by preparing different concentration of cells in 100 μl volume staring at 1000 cell/100 μl to 20,000 cell/100 μl in a 2-fold serial dilution manner. […] After performing the test according to the manufacturer instructions, the average OD value reading of the triplicate for each dilution in each set was taken and plotted against number of cells. […] Absorbance is measured at 490 nm and 680 nm using Spectramax i3x. […]

[7] = tested on: human peripheral blood mononuclear cells; assay: Cytokine, chemokine and growth factor production in human PBMC cultures (Example 13); type: cell-based
Text: Proof of the antipruritic activity of oleandrin was established in vitro according to Example 13 by measuring its effect upon on the expression of key cytokines, chemokines, and other factors that are part of the innate immune system. An in vitro model of human peripheral blood mononuclear cells was used to determine effects the effects of OCC under different culture conditions: normal (no inflammation) and inflamed by lipopolysaccharide (LPS).
Reagents. Dulbecco's phosphate-buffered saline (Gibco cat. #141190-136), lipopolysaccharide (LPS) (Invitrogen cat. #00-4976-93), Roswell Park Memorial Institute 1640 cell culture medium (Gibco cat. #11835-030), Fetal Bovine Serum (Gibco cat. #A38401-01), penicillin-streptomycin 100× (Gibco cat. #15140-122), CD69 fluorescein isothiocyanate (clone FN50, Invitrogen cat. #11-0699-42), CD56 phycoerythrin (clone CMSSB Invitrogen cat. #12-0567-42), and CD3 Super Bright 645 (clone OKT3 Invitrogen cat. #64-0037-42) were purchased from Thermo Fisher Scientific (Waltham, MA, USA). CD25 Brilliant Violet 421 (clone 2A3 BD cat. #564033) and sodium heparin Vacutainer tubes (BD cat. #367878) were purchased from Becton-Dickinson (Franklin Lakes, NJ, USA). The human erythroleukemia cell line K562 was purchased from American Type Culture Collection (Manassas, VA, USA). Customized Bio-Plex Pro™ human cytokine arrays were purchased from Bio-Rad Laboratories Inc. (Hercules, CA, USA). […]
The two products were handled in the following manner: (1) A stock solution of PBI was prepared in DMSO, and subsequent dilutions were prepared in phosphate-buffered saline. […] The range of concentrations in cell cultures was calculated based on the % oleandrin and ranged from 0.5 to 500 ng oleandrin/mL cell culture medium. […]
Immune cell activation. […] The PBMC were washed twice in PBS and counted, and the density was adjusted to establish 0.18 mL cultures with a cell density at 106/mL, using Roswell Park Memorial Institute 1640 medium containing 10% fetal calf serum and 1% penicillin-streptomycin. […]

[8] = tested on: dogs suffering from pruritus or atopic dermatitis; assay: Treatment of pruritus / atopic dermatitis in dogs (Examples 14, 15, 28); type: in vivo, dog; details: oral, 1-2 times daily, 2-6 or 3-5 microg oleandrin/Kg
Procedure: (§1) A dog presenting with pruritus was administered the aqueous liquid composition of Example 2. It contained 0.1-5 μg OLE/mL. The composition (0.25-1 mL) was administered (1-4 times daily) directly to the dog's mouth, thereby resulting in a combination of buccal and sublingual administration. […] Both inflammation and itchiness were relieved.
as §1, with “the MCT-based” for “the aqueous liquid”, “Example 21.” for “Example 2.”, “contained 12-25” for “contained 0.1-5”, “OLE/mL. A few drops of the” for “OLE/mL. The”, “mL) is” for “mL) was”
A dog presenting with pruritus was administered the aqueous liquid composition of Example 11. The composition was sprayed (1-4 pumps) directly onto the itchy area of the dog and rubbed into the skin and fur/hair. […] Both inflammation and itchiness were relieved.
Oleandrin (oleander extract) was orally administered in two different forms. The oil-based formulation of Example 21 was sprayed onto dog treats and administered between meals or sprayed onto dog food and administered as part of a meal. The chews of Example 27 were orally administered between meals. Both products were administered 1-2 times daily at doses ranging from 2-6 (preferably 3-5) microg oleandrin/Kg of bodyweight. […]

[9] = tested on: K562 human myelogenous leukemia target cells; assay: Cytotoxicity towards K562 target cells (CD107a; Example 13); type: cell-based; details: PBMC co-cultured with K562
Text: Natural killer (NK) cell cytotoxicity towards K562 human myelogenous leukemia target cells. The cell surface expression of CD107a (LAMP-1) is a marker for secretory degranulation of NK and activated cytotoxic T cells when they are co-cultured with malignant or virus-infected target cells. Peripheral blood mononuclear cells from healthy human donors were co-cultured with K562 cells in the absence versus presence of test products or matching concentrations of the DMSO solvent control. All treatments, including each concentration of test product and each positive and negative control, were tested in triplicate. CD107a-FITC antibody (6.5 μL/well) was added at the beginning of each culture, along with the protein transport inhibitor BD GolgiStop™, which contains Monensin and blocks intracellular protein transport processes. After 4 h of incubation at 37° C., 5% CO2, the cells were washed in phosphate-buffered saline and stained with CD3-PerCP and CD56-PE antibodies and then fixed in formalin. Flow cytometry analysis was performed where the strategy involved initial gating of the lymphocyte and monocyte subpopulations using the forward/side scatter plot, followed by analysis of T cells and NK cells in the lymphocyte population. The fluorescence intensity of CD107a was evaluated as the mean fluorescence intensity on monocytes, NK cells, and T cells.

[10] = tested on: Natural Killer (NK) cells and monocytes; assay: Immune cell activation in PBMC cultures (CD69, CD25; Example 13); type: cell-based, human
Procedure: Immune cell activation. Peripheral venous blood was drawn from healthy human donors upon written informed consent, as approval by the Sky Lakes Medical Center Institutional Review Board, Federalwide Assurance 2603. The blood was drawn into heparin vacutainer vials, and the peripheral blood mononuclear cells (PBMC) were isolated using Lympholyte Poly by centrifugation for 35 min at 400×g. The PBMC were washed twice in PBS and counted, and the density was adjusted to establish 0.18 mL cultures with a cell density at 106/mL, using Roswell Park Memorial Institute 1640 medium containing 10% fetal calf serum and 1% penicillin-streptomycin.
Cultures were then incubated at 37° C., 5% CO2 for 24 h. The highly inflammatory LPS from Escherichia coli was used as a positive control for immune-cell activation. In parallel, IL-2 was used as a positive control for natural killer (NK)-cell activation, at a concentration of 100 IU/mL in cell culture. Untreated negative control cultures consisted of PBMC exposed to phosphate-buffered saline in the absence of test products. […] The fluorescence intensities for CD3, CD25, CD56, and CD69 were measured by flow cytometry, using an Attune NxT acoustic-focusing flow cytometer (Thermo Fisher Scientific, Waltham, MA, USA). […] The lymphocyte subpopulation was further analyzed for CD25 and CD69 expression on CD3−CD56+ NK cells, CD3+ CD56+ NKT cells, and CD3+CD56− T cells.

Compound	IL-6, IFN-γ, and NGF-β ([1]; cytokines involved in dermal inflammation)	TGF-β1, IL12/IL-23p40, and TNF-α ([1]; less robust than the reductions triggered by OE and oleandrin)	levels of IL-8 and MCP-1 [2]	IC50 [3]	frequency of IL-4- and IL-10-producing murine CD4+ and CD8+ T cells [4]	concentration at which inhibition of T cell proliferation was seen (T cell proliferation)	concentrations at which anti-inflammatory properties have been reported [5]	IC50 (JAK kinases)	IL-6, IL-12/IL-23p40, IFN-γ, TNF-α, VEGF, and NGF-β ([1]; DH82 macrophage cultures, inflamed conditions (LPS), 24 hours)	toxicity, release of lactate dehydrogenase [6]	production of cytokines [7]	expression of IFN-γ, G-CSF, and IL-6 ([7]; 0.5 to 500 ng oleandrin/mL)	formation/expression of IL-21, IL-22, IL-23, IL-25, IL-31, IL-33, and TNF-α ([7]; 0.5 to 500 ng oleandrin/mL)	time until improvements became evident [8]	itching and scratching ([8]; as included in an oleander extract)	T cell cytotoxic attack on malignant target cells [9]	activation of Natural Killer (NK) cells and monocytes [10]
CNS(=O)(=O)C[C@H]1CC[C@H](N(C)c2ncnc3[nH]ccc23)CC1 [oclacitinib]	increases	reductions	little or no effect	> 1000 nM	reduces	10 µM	36 to 249 nM	10 to 99 nM									
CO[C@H]1C[C@H](O[C@H]2CC[C@@]3(C)[C@H](CC[C@@H]4[C@@H]3CC[C@]3(C)[C@@H](C5=CC(=O)OC5)[C@@H](OC(C)=O)C[C@]43O)C2)O[C@@H](C)[C@@H]1O [oleandrin]			reduced						reductions	no additional toxicity over control vehicle	increased	induced	suppressed	1 to 3 days	significant reduction in itching and scratching	increased	directly activated
